Patent US20240383908A1, “SYNTHESIS AND APPLICATION OF PHOSPHATASE DEGRADER” (HINOVA PHARMACEUTICALS INC., priority 2021, published 2024)
Structures can show the parent of a compound that is named as a salt.

The compounds below were run against T1, SHP2 protein (Homo sapiens, UniProt Q06124) (assay: Degradation activity on SHP2 protein in MIA Paca-2 cells (Western blot, DC50)). Settings: read-out: Degradation activity for differenct cell lines MIA Paca-2 (DC50).
T1 sequence (Q06124 1-593): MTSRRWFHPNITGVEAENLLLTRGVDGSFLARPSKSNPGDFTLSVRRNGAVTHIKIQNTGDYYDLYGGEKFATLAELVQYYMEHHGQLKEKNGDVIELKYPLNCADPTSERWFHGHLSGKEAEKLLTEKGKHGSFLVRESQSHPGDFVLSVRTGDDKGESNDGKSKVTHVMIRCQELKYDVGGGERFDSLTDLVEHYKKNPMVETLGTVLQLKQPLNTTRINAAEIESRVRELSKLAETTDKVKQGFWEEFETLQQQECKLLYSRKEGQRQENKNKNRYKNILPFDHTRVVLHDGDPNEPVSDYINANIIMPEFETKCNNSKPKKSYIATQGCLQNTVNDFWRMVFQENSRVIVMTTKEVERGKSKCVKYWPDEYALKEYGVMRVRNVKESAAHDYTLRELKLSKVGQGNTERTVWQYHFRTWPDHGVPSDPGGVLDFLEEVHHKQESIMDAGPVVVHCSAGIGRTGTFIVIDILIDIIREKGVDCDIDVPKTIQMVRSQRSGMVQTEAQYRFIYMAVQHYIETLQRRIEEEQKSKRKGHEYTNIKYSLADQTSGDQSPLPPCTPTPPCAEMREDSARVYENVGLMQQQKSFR
Assay type: cell-based
Parameters: endogenous in cells; host or cells: MIA Paca-2 cells
Description: (1) MV-411 cells were cultured in the cell culture medium, and then well-growing cells were selected and inoculated in a 12-well plate, with 1 mL/well and 1×10^6 cells/well. The plate was incubated overnight in a 5% CO2 cell incubator at 37° C.
(2) 10 mM storage solution of each drug was prepared using dimethylsulfoxide (DMSO). The stock solution was diluted gradually with DMSO before use, and then 1 μL of the compound solution was added to the cell culture well (to ensure that the DMSO concentration in the culture system was […]), so that the final drug concentration is 100 nM, 10 nM, 3 nM, 1 nM, 0.3 nM, and 0.1 nM. Two wells were set for each concentration. The plate was gently shaken and mixed. Additionally, negative control wells (containing an equal amount of DMSO) and positive control wells were included.
(3) After 24 hours of cultivation, the cells were lysed using RIPA cell lysate, and the proteins were extracted. The protein concentration was measured using a BCA assay kit. 5× concentrated protein buffer was loaded, heated at 100° C. for 5 min, and then the sample was stored at −20° C.
(4) For each well, 30 μg of protein was loaded to polyacrylamide gel for electrophoresis.
(5) The protein was transferred from polyacrylamide gel to PVDF membrane, and sealed at room temperature with 5% skimmed milk for 1 h, which was then incubated with the primary antibodies (Anti-SHP2 rabbit mAb and Anti-GAPDH rabbit mAb) at 4° C. overnight. The membrane was washed three times with TBST solution, 10 minutes for each time. After that, the membrane was incubated with the secondary antibodies (horseradish peroxidase labeled goat anti-rabbit IgG) at room temperature for 2 h, and then washed three times with TBST solution, 10 minutes for each time, followed by exposure.
(6) The images were analyzed with Image J grayscale, and the degradation ratio of protein bands in the test group was calculated, based on the negative control group (DMSO) (100%).
(7) Using the Dose-response-inhibition equation in the data processing software GraphPad Prism 8, the DC50 value was obtained (which represents the drug concentration corresponding to 50% degradation of the target protein).
Using similar methods and different cell lines, the degradation activity of the compound according to the present invention on SHP2 protein of different cell lines was tested under suitable culture conditions.

| DC50 [nM] | SMILES |
| --- | --- |
| < 100 | CC1(N)CCN(c2cnc(Sc3cccc(NC(=O)c4ccc(N5CCC(N6CCN(c7ccc(C(=O)NCc8ccc9c(c8)CN(C8CCC(=O)NC8=O)C9=O)cc7F)CC6)CC5)cc4)c3)cn2)CC1 (centres unmarked) [Compound 513] |
| < 100 | CC1(N)CCN(c2cnc(Sc3cccc(NC(=O)c4ccc(N5CCC(N6CC=C(c7ccc(C(=O)NCc8ccc9c(c8)CN(C8CCC(=O)NC8=O)C9=O)nn7)CC6)C5)cc4)c3)cn2)CC1 (centres unmarked) [Compound 402] |
| < 100 | CC1(N)CCN(c2cnc(Sc3cccc(NC(=O)COc4ccc(N5CCN(c6ccc(C(=O)NCc7ccc8c(c7)CN(C7CCC(=O)NC7=O)C8=O)nn6)CC5)cc4)c3)cn2)CC1 (centres unmarked) [Compound 265] |
| < 100 | C[C@@H]1OCC2(CCN(c3cnc(Sc4cccc(NC(=O)[C@H]5C[C@@H]5c5ccc(N6CCN(c7ccc(C(=O)N8CCN(c9ccc%10c(c9)CN(C9CCC(=O)NC9=O)C%10=O)CC8)nn7)CC6)c(F)c5)c4)cn3)CC2)[C@@H]1N (some centres unmarked) [Compound 284] |
| > 1000 | CC1(N)CCN(c2cnc(Sc3cccc(NC(=O)C4CC45CCC(N4CC=C(c6ccc(C(=O)N7CCN(c8ccc9c(c8)CN(C8CCC(=O)NC8=O)C9=O)CC7)nc6)CC4)CC5)c3)cn2)CC1 (single isomer, unassigned) [Compound 322] |
| < 100 | NC1CCN(c2cnc(Sc3cccc(NC(=O)c4ccc(N5CCC(N6CC=C(c7ccc(C(=O)NCc8ccc9c(c8)CN(C8CCC(=O)NC8=O)C9=O)nc7)CC6)CC5)cc4)c3)cn2)CC1F (centres unmarked) [Compound 337] |
| > 1000 | C[C@@H]1OCC2(CCN(c3cnc(Sc4cccc(NC(=O)C5CCC(N6CC7(CCN(c8ccc(C(=O)NCc9ccc%10c(c9)CN(C9CCC(=O)NC9=O)C%10=O)cn8)C7)C6)CC5)c4)cn3)CC2)[C@@H]1N (some centres unmarked) [Compound 489] |
| < 100 | C[C@@H]1OCC2(CCN(c3cnc(Sc4cccc(NC(=O)COc5ccc(N6CCN(c7ccc(C(=O)NCc8ccc9c(c8)CN(C8CCC(=O)NC8=O)C9=O)nn7)CC6)cc5)c4)cn3)CC2)[C@@H]1N (some centres unmarked) [Compound 263] |
| < 100 | CC1(N)CCN(c2cnc(Sc3cccc(NC(=O)c4ccc(N5CCC(N6CC=C(c7ccc(C(=O)NCc8ccc9c(c8)CN(C8CCC(=O)NC8=O)C9=O)nn7)CC6)CC5)nc4)c3)cn2)CC1 (centres unmarked) [Compound 326] |
| < 100 | Cc1nc(C(=O)NCc2ccc3c(c2)CN(C2CCC(=O)NC2=O)C3=O)ccc1C1=CCN(C2CCN(c3ccc(C(=O)Nc4cccc(Sc5cnc(N6CCC7(CC6)CO[C@@H](C)[C@H]7N)cn5)c4)cc3F)CC2)CC1 (stereo partly drawn) [Compound 461, N-{[2-(2,6-oxohexahydropyridin-3-yl)-1-oxo-2,3-dihydro-1H-isoindol-5-yl]methyl}-5-(1-{1-[2-fluoro-4-({[3-({5-[(3S,4S)-4-amino-3-methyl-8-aza-2-oxaspiro[4.5]decan-8-yl]pyrazin-2-yl}thio)phenyl]amino}carbonyl)phenyl]hexahydropyridine-4-yl}-1,2,3,6-tetrahydropyridin-4-yl)-6-methylpyridine-2-formamide hydrochloride] |
| 100 to 1000 | CC1(N)CCN(c2cnc(Sc3cccc(NC(=O)c4ccc(N5CCC(N6CCN(c7ccc(C(=O)NCc8ccc9c(c8)CN(C8CCC(=O)NC8=O)C9=O)nc7)CC6)CC5)nc4)c3)cn2)CC1 (centres unmarked) [Compound 436] |
| > 1000 | CC1(N)CCN(c2cnc(Sc3cccc(NC(=O)c4ccc(N5CCN(c6ccc(C(=O)NCc7ccc8c(c7)C(=O)N(C7CCC(=O)NC7=O)C8)nn6)CC5)c(F)c4)c3)cn2)CC1 (centres unmarked) [Compound 260] |
| < 100 | Cc1cc(C(=O)Nc2cccc(Sc3cnc(N4CCC(C)(N)CC4)cn3)c2)ccc1N1CCC(N2CC=C(c3cnc(C(=O)NCc4ccc5c(c4)CN(C4CCC(=O)NC4=O)C5=O)cc3Cl)CC2)CC1 (centres unmarked) [Compound 452] |
| < 100 | CC1(N)CCN(c2cnc(Sc3cccc(NC(=O)C4CC(N5CCC(N6CC=C(c7ccc(C(=O)Nc8ccc9c(c8)CN(C8CCC(=O)NC8=O)C9=O)nn7)CC6)CC5)C4)c3)cn2)CC1 (centres unmarked) [Compound 310] |
| < 100 | C[C@@H]1OCC2(CCN(c3cnc(Sc4cccc(NC(=O)c5ccc(N6CCC(N7CC=C(c8cnc(C(=O)NCc9ccc%10c(c9)CN(C9CCC(=O)NC9=O)C%10=O)c(F)c8)CC7)CC6)c(F)c5)c4)cn3)CC2)[C@@H]1N (some centres unmarked) [Compound 464] |
| > 1000 | CC1(N)CCN(c2cnc(Sc3cccc(NC(=O)c4ccc(C5=CCC(N6CC=C(c7ccc(C(=O)NCc8ccc9c(c8)CN(C8CCC(=O)NC8=O)C9=O)nc7)CC6)CC5)nc4)c3)cn2)CC1 (centres unmarked) [Compound 432] |
| < 100 | CC1(N)CCN(c2cnc(Sc3cccc(NC(=O)c4ccc(N5CCC(N6CC=C(c7ccc(C(=O)NCc8ccc9c(c8)CN(C8CCC(=O)NC8=O)C9=O)nc7)CC6)CC5)nc4)c3)cn2)CC1 (centres unmarked) [Compound 324] |

Second part, the compound before the results:

| SMILES | DC50 [nM] |
| --- | --- |
| CC1(N)CCN(c2cnc(Sc3cccc(NC(=O)c4ccc(N5CCC(N6CC=C(c7ccc(C(=O)NCc8ccc9c(c8)CN(C8CCC(=O)NC8=O)C9=O)nc7F)CC6)CC5)cc4)c3)cn2)CC1 (centres unmarked) [Compound 481] | < 100 |
| CC1(N)CCN(c2cnc(Sc3cccc(NC(=O)C4CCC(N5CC=C(c6ccc(C(=O)NCc7ccc8c(c7)CN(C7CCC(=O)NC7=O)C8=O)nc6)CC5)CC4)c3)cn2)CC1 (single isomer, unassigned) [Compound 300] | > 1000 |
| CC1(N)CCN(c2cnc(Sc3cccc(NC(=O)c4ccc(N5CCC(N6CC=C(c7ccc(C(=O)NCc8ccc9c(c8)CN(C8CCC(=O)NC8=O)C9=O)nn7)CC6)CC5)c(F)c4)c3)cn2)CC1 (centres unmarked) [Compound 329] | < 100 |
| CC1(N)CCN(c2cnc(Sc3cccc(NC(=O)C4CC45CCN(c4ccc(CN6CCN(c7ccc8c(c7)CN(C7CCC(=O)NC7=O)C8=O)CC6)cc4F)CC5)c3)cn2)CC1 (centres unmarked) [Compound 272] | > 1000 |
| CC1(N)CCN(c2cnc(Sc3cccc(NC(=O)c4ccc(N5CCC(N6CC=C(c7ccc(C(=O)Nc8ccc9c(c8)CN(C8CCC(=O)NC8=O)C9=O)nc7)CC6)CC5)nc4)c3)cn2)CC1 (centres unmarked) [Compound 325] | < 100 |
| CC1(N)CCN(c2cnc(Sc3cccc(NC(=O)c4ccc(CN5CCN(c6ccc7c(c6)C(=O)N(C6CCC(=O)NC6=O)C7=O)CC5)cc4)c3)cn2)CC1 (centres unmarked) [Compound 288] | > 1000 |
| CC1(N)CCN(c2cnc(Sc3cccc(NC(=O)C4CC45CCN(C4CCN(c6ccc(C(=O)NCc7ccc8c(c7)CN(C7CCC(=O)NC7=O)C8=O)nn6)CC4)CC5)c3)cn2)CC1 (centres unmarked) [Compound 290] | > 1000 |
| C[C@@H]1OCC2(CCN(c3cnc(Sc4cccc(NC(=O)C5CC(N6CCN(c7ccc(C(=O)NCc8ccc9c(c8)CN(C8CCC(=O)NC8=O)C9=O)nn7)CC6)C5)c4)cn3)CC2)[C@@H]1N (some centres unmarked) [Compound 475] | > 1000 |
| O=C1CCC(N2Cc3cc(CNC(=O)c4ccc(N5CCC6(CN(CCCCCCC(=O)Nc7cccc(Sc8cnc(N9CCCCC9)cn8)c7)C6)C5)nn4)ccc3C2=O)C(=O)N1 (centres unmarked) [Compound 212] | > 1000 |
| CC1(N)CCN(c2cnc(Sc3cccc(NC(=O)C4CC45CCC(N4CC=C(c6ccc(C(=O)Nc7ccc8c(c7)CN(C7CCC(=O)NC7=O)C8=O)nc6)CC4)CC5)c3)cn2)CC1 (single isomer, unassigned) [Compound 316] | > 1000 |
| C[C@@H]1OCC2(CCN(c3cnc(Sc4cccc(NCc5ccc(CN6CCN(c7ccc(C(=O)NCc8ccc9c(c8)CN(C8CCC(=O)NC8=O)C9=O)nn7)CC6)cc5)c4)cn3)CC2)[C@@H]1N (some centres unmarked) [Compound 253] | > 1000 |
| Cc1ncsc1-c1ccc([C@H](C)NC(=O)[C@@H]2C[C@@H](O)CN2C(=O)[C@@H](NC(=O)c2cnc(N3CCN(C4CC(C(=O)Nc5cccc(Sc6cnc(N7CCC8(CC7)CO[C@@H](C)[C@H]8N)cn6)c5)C4)CC3)nc2)C(C)(C)C)cc1 (stereo partly drawn) [Compound 294, 2-(4-(3-((3-((5-((3S,4S)-4-amino-3-methyl-2-oxa-8-azaspiro[4.5]decan-8-yl)pyrazin-2-yl)thio)phenyl)carbamoyl)cyclobutyl)piperazin-1-yl)-N—((S)-1-((2S,4R)-4-hydroxyl-2-(((S)-1-(4-(4-methylthiazol-5-yl)phenyl)ethyl)carbamoyl)pyrrolin-1-yl)-3,3-dimethyl-1-oxobutane-2-yl)pyrimidine-5-formamide hydrochloride] | < 100 |
